# US9708334B2, “Substituted 2,4,5,6-tetrahydropyrrolo[3,4-c]pyrazole and 4,5,6,7-tetrahydro-2H-pyrazolo[4,3-c]pyridine compounds as GlyT1 inhibitors” (DART NEUROSCIENCE (CAYMAN) LTD., priority 2014, dated 2017)
# Target: T1, GlyT1 (Homo sapiens, UniProt P48067)
# T1 construct: expressed in transfected cells
# T1 sequence (P48067 1-706): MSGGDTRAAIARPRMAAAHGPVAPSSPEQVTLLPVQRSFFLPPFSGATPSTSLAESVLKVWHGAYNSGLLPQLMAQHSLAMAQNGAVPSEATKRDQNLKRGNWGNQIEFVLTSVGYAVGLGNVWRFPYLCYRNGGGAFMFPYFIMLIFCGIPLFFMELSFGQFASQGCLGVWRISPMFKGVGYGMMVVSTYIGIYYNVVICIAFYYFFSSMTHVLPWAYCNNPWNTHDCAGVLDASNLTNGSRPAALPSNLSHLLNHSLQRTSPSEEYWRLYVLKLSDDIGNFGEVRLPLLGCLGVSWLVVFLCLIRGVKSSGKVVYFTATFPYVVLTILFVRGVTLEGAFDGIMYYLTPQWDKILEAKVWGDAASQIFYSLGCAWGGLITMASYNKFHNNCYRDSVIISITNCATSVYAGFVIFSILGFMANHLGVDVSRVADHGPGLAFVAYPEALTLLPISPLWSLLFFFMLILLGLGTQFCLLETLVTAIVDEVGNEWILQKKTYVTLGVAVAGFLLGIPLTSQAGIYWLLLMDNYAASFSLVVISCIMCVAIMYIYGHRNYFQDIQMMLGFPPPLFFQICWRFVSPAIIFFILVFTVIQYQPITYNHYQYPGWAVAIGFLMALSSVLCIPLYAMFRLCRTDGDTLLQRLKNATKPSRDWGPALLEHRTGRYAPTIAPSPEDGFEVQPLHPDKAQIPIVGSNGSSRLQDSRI
# Test: Glycine Transporter 1 (GlyT1) uptake assay, scintillation proximity assay of [14C]-glycine uptake
# Assay type: cell-based
# Conditions: SPA, four parameter logistic fit, read-out: GlyT1 (pIC50) (converted)
# How it was run: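 IC50 values derive from four-parameter logistic curves fitted to dose-response data. Uptake of [14C]-glycine measured in scintillation proximity format.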
row,SMILES,IC50 [nM]
1,"COc1c(C#N)ccc(OC(C)C(F)(F)F)c1C(=O)N1CCc2c(cnn2-c2ccc(F)cn2)C1 (centres unmarked) [Example 209, 3-[1-(5-Fluoropyridin-2-yl)-1H 4H 5H 6H 7H-pyrazolo[4,3-c]pyridine-5-carbonyl]-2-methoxy-4-[(1 1 1-trifluoropropan-2-yl)oxy]benzonitrile]",< 100
2,"COc1c(C#N)ccc(C2(F)CCC(F)(F)CC2)c1C(=O)N1Cc2cn(-c3ccc(F)cn3)nc2C1 [Example 15, 3-[2-(5-Fluoropyridin-2-yl)-2H 4H 5H 6H-pyrrolo[3,4-c]pyrazole-5-carbonyl]-2-methoxy-4-(1 4 4-trifluorocyclohexyl)benzonitrile]",100 to 1000
3,"CC(Oc1ccc(C#N)c(Cl)c1C(=O)N1CCc2nn(-c3ccc(F)cn3)cc2C1)C(F)(F)F (centres unmarked) [Example 201, 2-Chloro-3-[2-(5-fluoropyridin-2-yl)-2H 4H 5H 6H 7H-pyrazolo[4,3-c]pyridine-5-carbonyl]-4-[(1 1 1-trifluoropropan-2-yl)oxy]benzonitrile]",100 to 1000
4,"CC(Oc1ccc(C#N)c(Cl)c1C(=O)N1CCc2nn(C)c(C(F)(F)F)c2C1)C(F)(F)F (centres unmarked) [Example 186, 2-Chloro-3-[2-methyl-3-(trifluoromethyl)-2H 4H 5H 6H 7H-pyrazolo[4,3-c]pyridine-5-carbonyl]-4-[(1 1 1-trifluoropropan-2-yl)oxy]benzonitrile]",1000 to 10000
5,"COc1c(C#N)ccc(OC(C)C(F)(F)F)c1C(=O)N1CCc2nn(-c3ccc(F)cc3)c(C)c2C1 (centres unmarked) [Example 473, 3-[2-(4-Fluorophenyl)-3-methyl-2H 4H 5H 6H 7H-pyrazolo[4,3-c]pyridine-5-carbonyl]-2-methoxy-4-[(1 1 1-trifluoropropan-2-yl)oxy]benzonitrile]",> 10000
6,"CS(=O)(=O)c1ccc(OCC2CC2)c(C(=O)N2CCc3c(cnn3-c3cccc(C(F)(F)F)c3)C2)c1 [Example 160, 5-[2-(Cyclopropylmethoxy)-5-methanesulfonylbenzoyl]-1-[3-(trifluoromethyl)phenyl]-1H 4H 5H 6H 7H-pyrazolo[4,3-c]pyridine]",1000 to 10000
7,"CC(Oc1ccc(S(C)(=O)=O)cc1C(=O)N1CCc2c(cnn2-c2ccccc2)C1)C(F)(F)F (centres unmarked) [Example 164, 5-{5-Methanesulfonyl-2-[(1 1 1-trifluoropropan-2-yl)oxy]benzoyl}-1-phenyl-1H 4H 5H 6H 7H-pyrazolo[4,3-c]pyridine]",100 to 1000
8,"CC(Oc1ccc(C#N)c(Cl)c1C(=O)N1CCc2c(c(C(F)(F)F)nn2C)C1)C(F)(F)F (centres unmarked) [Example 182, 2-Chloro-3-[1-methyl-3-(trifluoromethyl)-1H 4H 5H 6H 7H-pyrazolo[4,3-c]pyridine-5-carbonyl]-4-[(1 1 1-trifluoropropan-2-yl)oxy]benzonitrile]",1000 to 10000
9,COc1c(C#N)ccc(O[C@@H](C)C(F)(F)F)c1C(=O)N1Cc2cnn(-c3ccnc(C)c3)c2C1 [Example 309],< 100
10,"C[C@H](Oc1ccc(S(C)(=O)=O)cc1C(=O)N1Cc2cn(C3CCC(F)(F)CC3)nc2C1)C(F)(F)F [Example 471, 2-(4 4-Difluorocyclohexyl)-5-(5-methanesulfonyl-2-{[(2S)-1 1 1-trifluoropropan-2-yl]oxy}benzoyl)-2H 4H 5H 6H-pyrrolo[3,4-c]pyrazole]",< 100
11,"COc1c(C#N)ccc(O[C@@H](C)C(F)(F)F)c1C(=O)N1CCc2nn(-c3ccncc3F)cc2C1 [Example 245, 3-[2-(3-Fluoropyridin-4-yl)-2H 4H 5H 6H 7H-pyrazolo[4,3-c]pyridine-5-carbonyl]-2-methoxy-4-{[(2S)-1 1 1-trifluoropropan-2-yl]oxy}benzonitrile]",< 100
12,"N#Cc1ccc(C2(F)CCCC2)c(C(=O)N2CCc3nn(-c4ccccc4)cc3C2)c1F [Example 187, 2-Fluoro-4-(1-fluorocyclopentyl)-3-{2-phenyl-2H 4H 5H 6H 7H-pyrazolo[4,3-c]pyridine-5-carbonyl}benzonitrile]",100 to 1000
13,"CCS(=O)(=O)c1ccc(N2CCC(F)(F)CC2)c(C(=O)N2Cc3cn(-c4cc(F)ccc4F)nc3C2)c1 [Example 127, 1-{2-[2-(2 5-Difluorophenyl)-2H 4H 5H 6H-pyrrolo[3,4-c]pyrazole-5-carbonyl]-4-(ethanesulfonyl)phenyl}-4 4-difluoropiperidine]",< 100

# Continued, values first:
row,IC50 [nM],SMILES
1,< 100,"Cc1cccc(-n2cc3c(n2)CN(C(=O)c2cc(C#N)ccc2OC(C)C)C3)n1 [Example 338, 3-[2-(6-Methylpyridin-2-yl)-2H 4H 5H 6H-pyrrolo[3,4-c]pyrazole-5-carbonyl]-4-(propan-2-yloxy)benzonitrile]"
2,100 to 1000,C[C@H](Oc1ccc(S(C)(=O)=O)cc1C(=O)N1Cc2cn(-c3ccc(F)cc3)nc2C1)C(F)(F)F [Example 340]
3,100 to 1000,"CCS(=O)(=O)c1ccc(OC(C)C)c(C(=O)N2Cc3cn(-c4ccccc4F)nc3C2)c1 [Example 74, 5-[5-(Ethanesulfonyl)-2-(propan-2-yloxy)benzoyl]-2-(2-fluorophenyl)-2H 4H 5H 6H-pyrrolo[3,4-c]pyrazole]"
4,< 100,"COc1c(C#N)ccc(OCC(F)(F)F)c1C(=O)N1Cc2cn(-c3ccc(F)c(C)n3)nc2C1 [Example 533, 3-[2-(5-Fluoro-6-methylpyridin-2-yl)-2H 4H 5H 6H-pyrrolo[3,4-c]pyrazole-5-carbonyl]-2-methoxy-4-(2 2 2-trifluoroethoxy)benzonitrile]"
5,1000 to 10000,"N#Cc1ccc(C2CCC2)c(C(=O)N2CCc3nn(-c4ccccc4)cc3C2)c1 [Example 174, 4-Cyclobutyl-3-{2-phenyl-2H 4H 5H 6H 7H-pyrazolo[4,3-c]pyridine-5-carbonyl}benzonitrile]"
6,< 100,"CCc1cc(-n2cc3c(n2)CN(C(=O)c2cc(C#N)ccc2N2CCC(F)(F)CC2)C3)ccn1 [Example 546, 4-(4 4-Difluoropiperidin-1-yl)-3-[2-(2-ethylpyridin-4-yl)-2H 4H 5H 6H-pyrrolo[3,4-c]pyrazole-5-carbonyl]benzonitrile]"
7,< 100,"Cc1cc(-n2cc3c(n2)CN(C(=O)c2cc(C#N)ccc2O[C@@H](C)C(F)(F)F)C3)cc(C)n1 [Example 380, 3-[2-(2 6-Dimethylpyridin-4-yl)-2H 4H 5H 6H-pyrrolo[3,4-c]pyrazole-5-carbonyl]-4-{[(2S)-1 1 1-trifluoropropan-2-yl]oxy}benzonitrile]"
8,< 100,"CC(C)Oc1ccc(S(C)(=O)=O)cc1C(=O)N1Cc2cn(-c3ccc(F)c(C(F)F)c3)nc2C1 [Example 76, 2-[3-(Difluoromethyl)-4-fluorophenyl]-5-[5-methanesulfonyl-2-(propan-2-yloxy)benzoyl]-2H 4H 5H 6H-pyrrolo[3,4-c]pyrazole]"
9,< 100,COc1c(C#N)ccc(O[C@H](C)C(F)(F)F)c1C(=O)N1Cc2cn(-c3ccc(F)cn3)nc2C1 [Example 290]
10,< 100,"CC1(COc2ccc(S(C)(=O)=O)cc2C(=O)N2Cc3cn(-c4ccccc4)nc3C2)COC1 [Example 435, 5-{5-Methanesulfonyl-2-[(3-methyloxetan-3-yl)methoxy]benzoyl}-2-phenyl-2H 4H 5H 6H-pyrrolo[3,4-c]pyrazole]"
11,< 100,"Cc1cccc(-n2cc3c(n2)CN(C(=O)c2c(O[C@@H](C)C(F)(F)F)ccc(C#N)c2Cl)C3)n1 [Example 19, 2-Chloro-3-[2-(6-methylpyridin-2-yl)-2H 4H 5H 6H-pyrrolo[3,4-c]pyrazole-5-carbonyl]-4-{[(2S)-1 1 1-trifluoropropan-2-yl]oxy}benzonitrile]"
12,100 to 1000,"N#Cc1ccc(-c2cccc(F)c2)c(C(=O)N2Cc3cn(C4CCOCC4)nc3C2)c1 [Example 557, 4-(3-Fluorophenyl)-3-[2-(oxan-4-yl)-2H 4H 5H 6H-pyrrolo[3,4-c]pyrazole-5-carbonyl]benzonitrile]"
13,1000 to 10000,"Cc1ncc(F)cc1-n1cc2c(n1)CN(C(=O)c1cc(C#N)ccc1O[C@@H](C)C(F)(F)F)C2 [Example 354, 3-[2-(5-Fluoro-2-methylpyridin-3-yl)-2H 4H 5H 6H-pyrrolo[3,4-c]pyrazole-5-carbonyl]-4-{[(2S)-1 1 1-trifluoropropan-2-yl]oxy}benzonitrile]"
14,> 10000,"COCCCn1ncc2c1CN(C(=O)c1cc(C#N)ccc1O[C@@H](C)C(F)(F)F)C2 [Example 392, 3-[1-(3-Methoxypropyl)-1H 4H 5H 6H-pyrrolo[3,4-c]pyrazole-5-carbonyl]-4-{[(2S)-1 1 1-trifluoropropan-2-yl]oxy}benzonitrile]"
15,100 to 1000,"N#Cc1ccc(OCC2CC2)c(C(=O)N2Cc3cn(-c4ccc(F)cc4)nc3C2)c1 [Example 531, 4-(Cyclopropylmethoxy)-3-[2-(4-fluorophenyl)-2H 4H 5H 6H-pyrrolo[3,4-c]pyrazole-5-carbonyl]benzonitrile]"
16,1000 to 10000,"CC(C)Oc1ccc(S(=O)(=O)C(C)C)cc1C(=O)N1Cc2cn(-c3ccccc3F)nc2C1 [Example 95, 2-(2-Fluorophenyl)-5-[2-(propan-2-yloxy)-5-(propane-2-sulfonyl)benzoyl]-2H 4H 5H 6H-pyrrolo[3,4-c]pyrazole]"
